Test results as given in ChEMBL document CHEMBL5346981, “Structure-Guided Design and Synthesis of a Pyridazinone Series of Trypanosoma cruzi Proteasome Inhibitors” (J Med Chem, 2023).
The source made the active and inactive calls. The rule behind the calls is not given here.

What was measured:
[1] = Inhibition of chymotrypsin like activity in Trypanosoma cruzi Silvio X10/7 proteasome using Suc-LLVY-Rho-110-D-Proline peptide as substrate preincubated for 10 mins followed by substrate addition and measured for 30 mins by fluorescence based microplate reader analysis
[2] = Cytotoxicity against African green monkey Vero E6 cells assessed as reduction in cell viability; assay type: toxicity, cell-based; settings: African green monkey (Chlorocebus sabaeus)
Trypanosoma cruzi [3] = assay: Antiprotozoal activity against intracellular Trypanosoma cruzi X10/7 A1 amastigotes infected in Vero cells assessed as parasite growth inhibition incubated for 72 to 96 hrs by Hoechst 33342 staining based analysis; assay type: functional, organism-based; settings: X10/7 A1, Vero
Blood [4] = assay: T>EC99 in Balb/c mouse infected with Trypanosoma cruzi X10/7 A1 assessed as time of blood free drug concentration in mouse exceeding EC99 for antiprotozoal activity against intracellular Trypanosoma cruzi infected in Vero cells at 50 mg/kg, po and measured after 1 day by UPLC-MS/MS analysis; assay type: ADME, organism-based; settings: in vivo, 24 h
Blood [5] = assay: T>EC99 in Balb/c mouse infected with Trypanosoma cruzi X10/7 A1 assessed as time of blood free drug concentration in mouse exceeding EC99 for antiprotozoal activity against intracellular Trypanosoma cruzi infected in Vero cells at 50 mg/kg, po and measured after 20 days by UPLC-MS/MS analysis; assay type: ADME, organism-based; settings: in vivo, 480 h, time 20 day
Trypanosoma cruzi [6] = assay: Antitrypanosomal activity against Trypanosoma cruzi X10/7 A1 infected in Balb/c mouse assessed as parasite clearance at 100 mg/kg, po bid for 20 days by bioluminescence analysis; assay type: functional, organism-based; settings: time 20.0 day
Blood [7] = assay: T>EC99 in Balb/c mouse assessed as time of blood total concentration in mouse exceeding EC99 for antiprotozoal activity against intracellular Trypanosoma cruzi infected in Vero cells at 50 mg/kg, po and measured upto 24 hrs by UPLC-MS/MS analysis; assay type: ADME, organism-based; settings: in vivo

SMILES: COc1ccc(Cn2nc(C(=O)Nc3ccc(F)c(C(=O)N[C@H]4C[C@H](N5CCOCC5)C4)c3)ccc2=O)cc1F
- pIC50 [1]: 8.1

SMILES: COc1ccc(Cn2nc(C(=O)Nc3ccc(F)c(C(=O)N[C@H]4C[C@@H](N5CCOCC5)C4)c3)ccc2=O)cc1F
- pIC50 [1]: 8.1

SMILES: COc1ccc(Cn2nc(C(=O)Nc3ccc(F)c(C(=O)NC4CC4)c3)ccc2=O)cc1C#N
- pIC50 [1]: 8
- EC50 [2]: > 50.1 µM

SMILES: CN(C(=O)c1ccc(=O)n(Cc2ccccc2)n1)c1cccc(C(=O)NC2CC2)c1
- pIC50 [1]: < 4
- EC50 [2]: > 50.1 µM

SMILES: O=C(NC1CC1)c1cccc(NC(=O)c2ccc(=O)n(Cc3ccccc3)n2)c1
- pIC50 [1]: 6.2
- EC50 (Trypanosoma cruzi [3]): 10 µM

SMILES: CN(C(=O)c1cccc(NC(=O)c2ccc(=O)n(Cc3ccccc3)n2)c1)C1CC1
- pIC50 [1]: 4.7

SMILES: COc1cccc(Cn2nc(C(=O)Nc3ccc(F)c(C(=O)NC4CC4)c3)ccc2=O)c1
- pIC50 [1]: < 4
- EC50 [2]: > 50.1 µM

SMILES: COc1ccc(Cn2nc(C(=O)Nc3ccc(F)c(C(=O)N[C@H]4C[C@H](OC)C4)c3)ccc2=O)cc1F
- pIC50 [1]: 8.2

SMILES: O=C(Nc1ccc(F)c(C(=O)NC2CC2)c1)c1ccc(=O)n(Cc2ccccc2)n1
- pIC50 [1]: 6.8
- EC50 (Trypanosoma cruzi [3]): 2.51 µM
- EC50 [2]: > 50.1 µM

SMILES: COc1ccc(Cn2nc(C(=O)Nc3ccc(F)c(C(=O)NC4CC4)c3)ccc2=O)cc1
- pIC50 [1]: 7.5
- EC50 [2]: > 50.1 µM

SMILES: O=C(Nc1ccc(F)c(-c2cn3nc(N4CCOCC4)cnc3n2)c1)N1CCCC1
- pIC50 [1]: 7.3
- EC50 [2]: > 50.1 µM

SMILES: COc1ccc(Cn2nc(C(=O)Nc3ccc(F)c(C(=O)NC4CC4)c3)ccc2=O)cc1Cl
- pIC50 [1]: 8.5
- EC50 [2]: > 50.1 µM

SMILES: O=C(NC1CC1)c1ccc(F)c(NC(=O)c2ccc(=O)n(Cc3ccccc3)n2)c1
- pIC50 [1]: 5.8
- EC50 [2]: > 50.1 µM

SMILES: O=C(Nc1ccc(F)c(C(=O)NC2CC2)c1)c1ccc(=O)n(CC2CCCCC2)n1
- pIC50 [1]: 6.4
- EC50 [2]: > 50.1 µM

SMILES: COc1ccc(Cn2nc(C(=O)Nc3ccc(F)c(C(=O)N[C@H](C)CO)c3)ccc2=O)cc1F
- pIC50 [1]: 7.3
- EC50 (Trypanosoma cruzi [3]): 0.316 µM

SMILES: COc1ncc(Cn2nc(C(=O)Nc3ccc(F)c(C(=O)NC4CC4)c3)ccc2=O)cc1F
- EC50 (Trypanosoma cruzi [3]): 31.6 µM
- EC50 [2]: > 50.1 µM

SMILES: CNC(=O)c1cc(NC(=O)c2ccc(=O)n(Cc3ccc(OC)cc3)n2)ccc1F
- T>EC99 (Blood [4]): 5 h
- T>EC99 (Blood [5]): < 2 h

SMILES: O=C(Nc1ccc(F)c(C(=O)NC2CC2)c1)c1ccc(=O)n(Cc2ccc(Cl)c(F)c2)n1
- pIC50 [1]: 7.6
- EC50 (Trypanosoma cruzi [3]): 0.251 µM
- EC50 [2]: > 50.1 µM

SMILES: O=C(Nc1cccc(C(=O)NC2CC2)c1)c1ccc(=O)n(Cc2ccccc2)c1
- pIC50 [1]: 5.8
- EC50 [2]: > 50.1 µM

SMILES: O=C(Cn1ccnc1[N+](=O)[O-])NCc1ccccc1
- Activity (Trypanosoma cruzi [6]): Active

SMILES: COc1ccc(Cn2nc(C(=O)Nc3ccc(F)c(C(=O)NCCN4CCOCC4)c3)ccc2=O)cc1
- pIC50 [1]: 6.9
- EC50 [2]: > 50.1 µM

SMILES: CNC(=O)c1cc(NC(=O)c2ccc(=O)n(Cc3ccc(OC)c(F)c3)n2)ccc1F
- pIC50 [1]: 8.2

SMILES: COc1ccc(Cn2nc(C(=O)Nc3ccc(F)c(C(=O)NC4CC4)c3)ccc2=O)cc1F
- pIC50 [1]: 8.1
- T>EC99 (Blood [7]): 14 h
